The values that follow come from PubChem BioAssay AID194 (DTP/NCI, 2004).

For this assay, the system named is BDF1 mice, B16 melanoma s.c., survival/tumor T/C. The assay can be described thus: NCI In Vivo Anticancer Drug Screen. Data for tumor model B16 Melanoma (subcutaneous) in B6D2F1 (BDF1) mice. Here is the method: The antitumor activity of compounds was measured in mice bearing transplantable tumors. Survival or tumor size were measured and the results are expressed as the measurement made in the treated group (T) divided by the measurement made in the vehicle treated control group (C). The tumor model used in this assay is B16 Melanoma (subcutaneous) in B6D2F1 (BDF1) mice

Where [1] appears, read: endpoint: median survival time, dose: 12.5 mg/kg/injection, schedule: Q01DX009 (ip), vehicle: Klucel (hydroxypropylcellulose) (HPC), higher = longer survival.
The mark [2] stands for this setting: endpoint: median survival time, dose: 50.0 mg/kg/injection, schedule: Q01DX009 (ip), vehicle: water, higher = longer survival.
Setting [3] is: endpoint: median survival time, dose: 100.0 mg/kg/injection, schedule: Q01DX009 (ip), vehicle: water, higher = longer survival.

Where “and” joins values, the source holds several entries; their conditions need not be identical. Identical values can stand only once. Results filed as inconclusive are left out.

As to `FC(F)c1nc2nc(Cl)c(Cl)nc2[nH]1`, the T/C was 106 % of control (endpoint: median survival time, dose: 2.0 mg/kg/injection, schedule: Q01DX009 (ip), vehicle: Klucel (hydroxypropylcellulose) (HPC), higher = longer survival); 114 % of control (endpoint: median survival time, dose: 4.0 mg/kg/injection, schedule: Q01DX009 (ip), vehicle: Klucel (hydroxypropylcellulose) (HPC), higher = longer survival); 97 % of control (endpoint: median survival time, dose: 8.0 mg/kg/injection, schedule: Q01DX009 (ip), vehicle: Klucel (hydroxypropylcellulose) (HPC), higher = longer survival); 157 % of control (endpoint: median survival time, dose: 8.0 mg/kg/injection, schedule: Q01DX009 (ip), vehicle: other, higher = longer survival); 102 % of control (endpoint: median survival time, dose: 16.0 mg/kg/injection, schedule: Q01DX009 (ip), vehicle: Klucel (hydroxypropylcellulose) (HPC), higher = longer survival); 117 % of control (endpoint: median survival time, dose: 16.0 mg/kg/injection, schedule: Q01DX009 (ip), vehicle: other, higher = longer survival). Moreover, the T/C was 121 % of control (endpoint: median survival time, dose: 32.0 mg/kg/injection, schedule: Q01DX009 (ip), vehicle: Klucel (hydroxypropylcellulose) (HPC), higher = longer survival) and 89 % of control (endpoint: median survival time, dose: 32.0 mg/kg/injection, schedule: Q01DX009 (ip), vehicle: other, higher = longer survival).

`COc1cc2c(c(OC)c1OC)-c1cc3c(cc1[C@@H](OC(C)=O)[C@@H]1COC(=O)[C@H]1C2)OCO3`: the T/C is, setting by setting: (endpoint: median survival time, dose: 0.62 mg/kg/injection, schedule: Q01DX009 (ip), vehicle: Klucel (hydroxypropylcellulose) (HPC), higher = longer survival) 100 % of control; (endpoint: median survival time, dose: 1.25 mg/kg/injection, schedule: Q01DX009 (ip), vehicle: Klucel (hydroxypropylcellulose) (HPC), higher = longer survival) 88 % of control and 89 % of control; (endpoint: median survival time, dose: 2.5 mg/kg/injection, schedule: Q01DX009 (ip), vehicle: Klucel (hydroxypropylcellulose) (HPC), higher = longer survival) 97 % of control; (endpoint: median survival time, dose: 5.0 mg/kg/injection, schedule: Q01DX009 (ip), vehicle: Klucel (hydroxypropylcellulose) (HPC), higher = longer survival) 105 % of control and 116 % of control; (endpoint: median survival time, dose: 10.0 mg/kg/injection, schedule: Q01DX009 (ip), vehicle: Klucel (hydroxypropylcellulose) (HPC), higher = longer survival) 109 % of control.

`ClCC[N-]CC[N-]CCCl.ClCC[N-]CC[N-]CCCl.[O-][Cl+3]([O-])([O-])O.[Zn+2]`: the T/C (endpoint: median survival time, dose: 2.5 mg/kg/injection, schedule: Q01DX009 (ip), vehicle: saline with Tween-80, higher = longer survival) was 102 % of control; the T/C (endpoint: median survival time, dose: 5.0 mg/kg/injection, schedule: Q01DX009 (ip), vehicle: saline with Tween-80, higher = longer survival) was 94 % of control; the T/C (endpoint: median survival time, dose: 10.0 mg/kg/injection, schedule: Q01DX009 (ip), vehicle: saline with Tween-80, higher = longer survival) was 115 % of control; the T/C (endpoint: median survival time, dose: 20.0 mg/kg/injection, schedule: Q01DX009 (ip), vehicle: saline with Tween-80, higher = longer survival) is 89 % of control.

`O`: the T/C (endpoint: median survival time, dose: 50.0 mg/kg/injection, schedule: Q02DX009 (ip), vehicle: saline, higher = longer survival) is 94 % of control; the T/C (endpoint: median survival time, dose: 100.0 mg/kg/injection, schedule: Q02DX009 (ip), vehicle: saline, higher = longer survival) was 101 % of control; the T/C (endpoint: median survival time, dose: 200.0 mg/kg/injection, schedule: Q02DX009 (ip), vehicle: saline, higher = longer survival) is 118 % of control; the T/C (endpoint: median survival time, dose: 400.0 mg/kg/injection, schedule: Q02DX009 (ip), vehicle: saline, higher = longer survival) was 98 % of control.

Take `COc1cc2c[n+](C)c3c4cc5c(cc4ccc3c2cc1OC)OCO5`: the T/C by setting is: (endpoint: median survival time, dose: 3.12 mg/kg/injection, schedule: Q01DX009 (ip), vehicle: Klucel (hydroxypropylcellulose) (HPC), higher = longer survival) 107 % of control; (endpoint: median survival time, dose: 6.25 mg/kg/injection, schedule: Q01DX009 (ip), vehicle: Klucel (hydroxypropylcellulose) (HPC), higher = longer survival) 96 % of control; under setting [1], 116 % of control.

Consider `CS(=O)(=O)OCCCNCCCOS(C)(=O)=O`, for which the T/C was 106 % of control (endpoint: median survival time, dose: 5.0 mg/kg/injection, schedule: Q01DX009 (ip), vehicle: saline, higher = longer survival); 110 % of control (endpoint: median survival time, dose: 10.0 mg/kg/injection, schedule: Q01DX009 (ip), vehicle: saline, higher = longer survival); 92 % of control (endpoint: median survival time, dose: 20.0 mg/kg/injection, schedule: Q01DX009 (ip), vehicle: saline, higher = longer survival).

Turning to `CC(C)[C@](O)(C(=O)OCC1=CC[N+]2([O-])CC[C@@H](O)[C@@H]12)[C@H](C)O` (stereo not given in full), the T/C was 95 % of control under setting [2]; 106 % of control under setting [3]; 103 % of control (endpoint: median survival time, dose: 200.0 mg/kg/injection, schedule: Q01DX009 (ip), vehicle: water, higher = longer survival).

Regarding `Cc1c[n+]2c3ccccc3c3ccccc3c2s1`, where the note is “endpoint: median survival time, dose: 20.0 mg/kg/injection, schedule: Q01DX009 (ip), vehicle: Klucel (hydroxypropylcellulose) (HPC), higher = longer survival”, the T/C was 121 % of control.

In the case of `O=P1(N(CCCl)CCCl)NCCCO1` (stereo not given), the T/C reads like this: (endpoint: median survival time, dose: 15.0 mg/kg/injection, schedule: Q04DX003 (ip), vehicle: saline, higher = longer survival) 111 % of control; (endpoint: median survival time, dose: 30.0 mg/kg/injection, schedule: Q04DX003 (ip), vehicle: saline, higher = longer survival) 123 % of control; (endpoint: median survival time, dose: 60.0 mg/kg/injection, schedule: Q04DX003 (ip), vehicle: saline, higher = longer survival) 171 % of control; (endpoint: median survival time, dose: 120.0 mg/kg/injection, schedule: Q04DX003 (ip), vehicle: saline, higher = longer survival) 193 % of control; (endpoint: median survival time, dose: 200.0 mg/kg/injection, schedule: Q01DX001 (ip), vehicle: saline, higher = longer survival) 158 % of control; (endpoint: median tumor weight (est.), dose: 50.0 mg/kg/injection, schedule: Q01DX009 (ip), vehicle: saline, higher = larger tumour) 19 % of control and 40 % of control. For the setting “endpoint: median tumor weight (est.), dose: 100.0 mg/kg/injection, schedule: Q01DX009 (ip), vehicle: saline, higher = larger tumour”, the T/C is 19 % of control.

With `CS(=O)(=O)OCCCCOS(C)(=O)=O`, the T/C runs as follows: under setting [1], 88 % of control and 100 % of control; (endpoint: median survival time, dose: 25.0 mg/kg/injection, schedule: Q01DX009 (ip), vehicle: saline with Tween-80, higher = longer survival) 100 % of control; (endpoint: median survival time, dose: 50.0 mg/kg/injection, schedule: Q01DX009 (ip), vehicle: saline with Tween-80, higher = longer survival) 100 % of control; (endpoint: median tumor weight (est.), dose: 12.5 mg/kg/injection, schedule: Q01DX009 (ip), vehicle: saline with Tween-80, higher = larger tumour) 162 % of control; (endpoint: median tumor weight (est.), dose: 25.0 mg/kg/injection, schedule: Q01DX009 (ip), vehicle: Klucel (hydroxypropylcellulose) (HPC), higher = larger tumour) 97 % of control and 83 % of control; (endpoint: median tumor weight (est.), dose: 25.0 mg/kg/injection, schedule: Q01DX009 (ip), vehicle: saline with Tween-80, higher = larger tumour) 88 % of control. Moreover, the T/C is 61 % of control (endpoint: median tumor weight (est.), dose: 50.0 mg/kg/injection, schedule: Q01DX009 (ip), vehicle: Klucel (hydroxypropylcellulose) (HPC), higher = larger tumour) and 69 % of control (endpoint: median tumor weight (est.), dose: 50.0 mg/kg/injection, schedule: Q01DX009 (ip), vehicle: saline with Tween-80, higher = larger tumour).

For the molecule `CCOC(=O)c1csc(CCNC(=O)c2ccccc2)n1`, the T/C reads like this: (endpoint: median survival time, dose: 6.25 mg/kg/injection, schedule: Q01DX009 (ip), vehicle: water, higher = longer survival) 101 % of control; (endpoint: median survival time, dose: 12.5 mg/kg/injection, schedule: Q01DX009 (ip), vehicle: water, higher = longer survival) 94 % of control; (endpoint: median survival time, dose: 25.0 mg/kg/injection, schedule: Q01DX009 (ip), vehicle: water, higher = longer survival) 113 % of control; under setting [2], 87 % of control; under setting [3], 98 % of control.

Turning to `CC(=O)O[C@]1(C(C)=O)CC[C@H]2[C@@H]3C[C@H](C)C4=CC(=O)CC[C@]4(C)[C@H]3CC[C@@]21C`, the T/C was 111 % of control and 112 % of control (endpoint: median survival time, dose: 100.0 mg/kg/injection, schedule: Q01DX009 (ip), vehicle: Klucel (hydroxypropylcellulose) (HPC), higher = longer survival); 86 % of control and 102 % of control (endpoint: median survival time, dose: 200.0 mg/kg/injection, schedule: Q01DX009 (ip), vehicle: Klucel (hydroxypropylcellulose) (HPC), higher = longer survival); 96 % of control and 102 % of control (endpoint: median survival time, dose: 400.0 mg/kg/injection, schedule: Q01DX009 (ip), vehicle: Klucel (hydroxypropylcellulose) (HPC), higher = longer survival); 104 % of control and 111 % of control (endpoint: median survival time, dose: 800.0 mg/kg/injection, schedule: Q01DX009 (ip), vehicle: Klucel (hydroxypropylcellulose) (HPC), higher = longer survival).
